Data on eleven compounds can be found in paper PMC11513923, “Discovery of ZLC491 as a Potent, Selective, and Orally Bioavailable CDK12/13 PROTAC Degrader” (Journal of Medicinal Chemistry, 2024).

The target of assay [1] is T1, CDK13 (Homo sapiens, UniProt Q14004).
T1 construct: Immunoblotting of CDK12 and CDK13 in MDA-MB-231 cells treated with increasing concentrations of ZLC491 for 15 h; endogenous in cells; host or cells: MDA-MB-231
Kind of assay: CDK13 degradation in MDA-MB-231 cells by immunoblotting.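 On Protein Degradation (%DMSO control, 0.3 μM) CDK13: percent of CDK13 protein degraded relative to DMSO control.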 Type of assay: cell-based. Particulars: 0.3 μM; for Protein Degradation (%DMSO control, 0.3 μM) CDK13: MDA-MB-231 cells, 15 h, immunoblotting, normalized against α-tubulin; for Degradation rates of CDK13 at 0.3 μM: supplementary CSV. The method, then: (§1) The degradation efficiency of the new molecules was assessed by immunoblotting after treatment with the compounds at 0.3 μM in MD-MBA-231 cells for 15 h.
(§2) To further characterize the compound, we determined the half-degradation concentration (DC50) values of ZLC491 in MDA-MB-231 cells. […] We also treated MDA-MB-231 cells with 1 μM ZLC491 at various time points.
(§3) (A) Immunoblotting of CDK12 and CDK13 in MDA-MB-231 cells treated with increasing concentrations of ZLC491 for 15 h (left). Percent remaining CDK12 and CDK13 proteins were plotted for DC50 determination (right). Protein levels were quantified using ImageJ and normalized to corresponding α-tubulin, then plotted using Graphpad Prism 8.0. The data were representative of three independent experiments; (B) immunoblotting of CDK12 and CDK13 proteins in MDA-MB-231 cells treated with ZLC491 for various time points; immunoblotting of CDK12 and CDK13 in HCC38 (C) and MDA-MB-436 (D) cells treated with increasing concentrations of ZLC491 for 15 h. α-Tubulin was used as a loading control. TEXT PRINTED IN THE PICTURE: (A) ZLC491: MDA-MB-231: CDK12 DC50 = 0.032μM; MDA-MB-231: CDK13 DC50 = 0.028μM DOUBTS OF THE COPYIST ABOUT THIS PICTURE: ZLC491, CDK12 DC50: 0.032 read from small print, the digits 3 and 2 are uncertain / ZLC491, CDK13 DC50: 0.028 read from small print, the last digit may be 8, 6 or 3
(§4) Generally, the tested cells were washed by ice-cold PBS buffer (Gibco) and lysed with an SDS lysis buffer (62.5 mM Tris, 2% w/v SDS, 10 glycerol, 50 mM DTT, 0.01% w/v bromophenol blue) on ice, after which the protein lysate samples were collected to 1.5 mL microcentrifuge tubes and treated with ultrasonic for 10 s, following with a 100 °C incubation for 10 min and a 4 °C centrifugation of 12000 rpm for 10 min. An equal amount of protein was loaded to 4–8% Bis-Tris gels and underwent an SDS-PAGE electrophoresis at 55V for 30 min and 95V for 90 min. Proteins on gels were then transferred to a polyvinylidene difluoride (PVDF) membrane (Bio-Rad) with a wet electro transfer system (Bio-Rad). The PVDF membrane was cut into bands and incubated in a blocking reagent (5% defatted milk powder dissolved in TBST) at room temperature for 1–2 h. Incubate membrane and primary antibody (at the appropriate dilution and diluent as recommended in the product webpage) at 4 °C for 12–14 h, followed with three times washes by TBST. The washed membranes were incubated in a secondary antibody solution (HRP-linked antirabbit IgG or antimouse IgG (CST), 1:2000 diluted into TBST) at room temperature for 2 h. Membranes were photographed in Amersham Imager 800 system using StarSignal plus regent (GenStar) or Omni-ECL reagent (EpiZyme). Compounds MG132, MLN4924, Bafilomycin A1 and pomalidomide were purchased from MedChemExpress (MCE) LLC.
On the technique in general: A western blot detects proteins with antibodies after separation by electrophoresis.

Assay [2] concerns the target CDK12 (Homo sapiens, UniProt Q9NYV4). Put plainly: CDK12 degradation in MDA-MB-231 cells by immunoblotting. Type of assay: cell-based. Details: Immunoblotting of CDK12 and CDK13 in MDA-MB-231 cells treated with increasing concentrations of ZLC491 for 15 h; endogenous in cells; host or cells: MDA-MB-231. The following applies: 0.3 μM; for Protein Degradation (%DMSO control, 0.3 μM) CDK12: MDA-MB-231 cells, 15 h, immunoblotting, normalized against α-tubulin; for Degradation rates of CDK12 at 0.3 μM: supplementary CSV. As to the method:
as §1, §2, §3, §4

The structures appear in SMILES notation.

Sequence of CDK12 (Q9NYV4 whole entry): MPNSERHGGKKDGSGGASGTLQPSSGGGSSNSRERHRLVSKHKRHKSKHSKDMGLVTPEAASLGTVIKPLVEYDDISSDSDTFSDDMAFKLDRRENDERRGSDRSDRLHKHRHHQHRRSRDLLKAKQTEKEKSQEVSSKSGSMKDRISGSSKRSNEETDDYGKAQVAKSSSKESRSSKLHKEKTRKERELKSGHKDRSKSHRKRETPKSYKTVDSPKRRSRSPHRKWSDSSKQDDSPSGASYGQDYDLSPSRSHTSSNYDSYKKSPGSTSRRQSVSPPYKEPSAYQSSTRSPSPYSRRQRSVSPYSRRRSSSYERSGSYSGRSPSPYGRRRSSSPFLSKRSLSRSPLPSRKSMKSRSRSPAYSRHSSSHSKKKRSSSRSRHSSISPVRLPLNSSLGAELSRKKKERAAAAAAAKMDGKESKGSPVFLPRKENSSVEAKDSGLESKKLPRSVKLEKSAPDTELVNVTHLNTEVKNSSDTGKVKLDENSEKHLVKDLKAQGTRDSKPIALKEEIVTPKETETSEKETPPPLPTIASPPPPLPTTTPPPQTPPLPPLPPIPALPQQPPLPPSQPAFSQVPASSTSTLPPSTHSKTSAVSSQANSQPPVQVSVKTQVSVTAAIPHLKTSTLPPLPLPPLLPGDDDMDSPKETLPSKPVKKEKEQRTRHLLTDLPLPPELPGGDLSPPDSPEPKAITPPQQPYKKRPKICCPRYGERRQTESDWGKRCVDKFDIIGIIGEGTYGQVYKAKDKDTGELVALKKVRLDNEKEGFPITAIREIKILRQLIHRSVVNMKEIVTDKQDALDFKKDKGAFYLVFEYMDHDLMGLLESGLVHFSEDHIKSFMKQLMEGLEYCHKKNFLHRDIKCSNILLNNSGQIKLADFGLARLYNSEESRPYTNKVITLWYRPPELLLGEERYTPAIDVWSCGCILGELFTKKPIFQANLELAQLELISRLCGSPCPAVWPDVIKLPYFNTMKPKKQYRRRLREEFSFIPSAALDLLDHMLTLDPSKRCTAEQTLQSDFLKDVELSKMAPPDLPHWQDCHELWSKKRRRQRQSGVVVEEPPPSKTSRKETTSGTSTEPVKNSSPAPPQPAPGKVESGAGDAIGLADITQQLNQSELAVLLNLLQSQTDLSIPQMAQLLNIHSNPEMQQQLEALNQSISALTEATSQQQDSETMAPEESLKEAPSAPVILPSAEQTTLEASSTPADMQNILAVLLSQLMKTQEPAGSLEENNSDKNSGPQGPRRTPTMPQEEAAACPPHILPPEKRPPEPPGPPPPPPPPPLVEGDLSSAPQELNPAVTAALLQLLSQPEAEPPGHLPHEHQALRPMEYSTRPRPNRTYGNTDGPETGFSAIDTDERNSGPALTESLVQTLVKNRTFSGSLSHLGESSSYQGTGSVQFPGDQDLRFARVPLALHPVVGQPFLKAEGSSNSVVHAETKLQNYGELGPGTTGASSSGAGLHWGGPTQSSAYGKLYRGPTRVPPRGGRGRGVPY
Sequence of CDK12 (O75909 whole entry partner): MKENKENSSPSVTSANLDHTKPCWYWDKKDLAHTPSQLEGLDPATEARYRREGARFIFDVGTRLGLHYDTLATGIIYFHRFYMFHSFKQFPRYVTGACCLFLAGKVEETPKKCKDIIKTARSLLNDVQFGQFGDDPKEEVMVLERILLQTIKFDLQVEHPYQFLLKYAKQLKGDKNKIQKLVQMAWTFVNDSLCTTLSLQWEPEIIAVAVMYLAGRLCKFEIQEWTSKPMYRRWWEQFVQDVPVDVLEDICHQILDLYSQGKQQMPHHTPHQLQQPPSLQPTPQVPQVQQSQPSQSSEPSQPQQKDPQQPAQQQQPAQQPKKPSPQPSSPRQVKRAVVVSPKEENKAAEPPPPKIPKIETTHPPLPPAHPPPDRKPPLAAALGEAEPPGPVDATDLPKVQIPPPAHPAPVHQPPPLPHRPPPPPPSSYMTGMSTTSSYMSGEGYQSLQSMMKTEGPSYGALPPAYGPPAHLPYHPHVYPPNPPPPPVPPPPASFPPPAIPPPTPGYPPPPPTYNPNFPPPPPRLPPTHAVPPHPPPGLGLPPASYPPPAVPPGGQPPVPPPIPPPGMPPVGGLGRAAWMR
T1 sequence (Q14004 whole entry): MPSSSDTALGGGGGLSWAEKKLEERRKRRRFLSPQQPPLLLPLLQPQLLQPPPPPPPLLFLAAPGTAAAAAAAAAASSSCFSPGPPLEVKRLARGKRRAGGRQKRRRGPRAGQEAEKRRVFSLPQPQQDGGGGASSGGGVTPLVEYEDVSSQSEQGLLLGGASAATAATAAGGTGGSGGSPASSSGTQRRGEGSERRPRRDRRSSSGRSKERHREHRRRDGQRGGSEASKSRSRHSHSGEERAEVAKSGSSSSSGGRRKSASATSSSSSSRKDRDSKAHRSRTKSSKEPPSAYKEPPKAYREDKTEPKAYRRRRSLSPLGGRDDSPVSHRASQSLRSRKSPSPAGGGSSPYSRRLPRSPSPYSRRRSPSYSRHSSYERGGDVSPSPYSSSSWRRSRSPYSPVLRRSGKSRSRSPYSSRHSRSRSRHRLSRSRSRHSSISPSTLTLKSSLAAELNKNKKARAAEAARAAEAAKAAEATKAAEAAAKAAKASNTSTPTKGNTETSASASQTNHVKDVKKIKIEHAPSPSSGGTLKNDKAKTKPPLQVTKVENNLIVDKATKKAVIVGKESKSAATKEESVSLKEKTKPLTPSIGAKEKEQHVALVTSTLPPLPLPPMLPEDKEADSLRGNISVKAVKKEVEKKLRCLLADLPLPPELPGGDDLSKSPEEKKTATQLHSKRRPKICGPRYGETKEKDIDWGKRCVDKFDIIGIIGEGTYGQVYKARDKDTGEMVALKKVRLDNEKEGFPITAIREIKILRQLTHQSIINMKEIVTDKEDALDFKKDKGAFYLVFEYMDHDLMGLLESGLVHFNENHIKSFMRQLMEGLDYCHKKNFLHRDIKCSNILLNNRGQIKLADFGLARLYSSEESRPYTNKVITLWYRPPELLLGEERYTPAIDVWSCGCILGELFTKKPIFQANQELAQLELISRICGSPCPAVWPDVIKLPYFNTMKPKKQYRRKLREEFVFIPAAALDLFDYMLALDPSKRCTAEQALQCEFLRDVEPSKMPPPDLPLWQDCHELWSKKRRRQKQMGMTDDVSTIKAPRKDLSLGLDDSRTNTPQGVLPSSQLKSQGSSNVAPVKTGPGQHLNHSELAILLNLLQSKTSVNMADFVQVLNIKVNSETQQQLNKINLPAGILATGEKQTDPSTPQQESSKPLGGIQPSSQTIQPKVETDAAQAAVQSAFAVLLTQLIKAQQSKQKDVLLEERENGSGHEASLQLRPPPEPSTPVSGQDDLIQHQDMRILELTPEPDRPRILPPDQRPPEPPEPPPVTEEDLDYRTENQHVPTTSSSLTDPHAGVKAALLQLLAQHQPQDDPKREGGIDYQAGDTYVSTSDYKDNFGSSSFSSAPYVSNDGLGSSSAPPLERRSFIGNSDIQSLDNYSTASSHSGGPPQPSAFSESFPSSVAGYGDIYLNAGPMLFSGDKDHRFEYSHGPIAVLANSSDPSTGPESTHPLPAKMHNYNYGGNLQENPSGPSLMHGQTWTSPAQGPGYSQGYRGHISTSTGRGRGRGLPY
T1 sequence (O75909 whole entry partner): as the sequence (O75909 whole entry partner) above

For `N#Cc1ccc(N[C@H]2CC[C@H](N(C(=O)NCc3ccccc3)c3ccc(N4CCN(C(=O)C5CN(c6ccc7c(c6)C(=O)N(C6CCC(=O)NC6=O)C7=O)C5)CC4)cc3)CC2)nc1` (some centres unmarked) [4a, 3-Benzyl-1-((1r,4r)-4-((5-cyanopyridin-2-yl)amino)cyclohexyl)-1-(4-(4-(1-(2-(2,6-dioxopiperidin-3-yl)-1,3-dioxoisoindolin-5-yl)azetidine-3-carbonyl)piperazin-1-yl)phenyl)urea], in assay [1], the “Protein Degradation (%DMSO control, 0.3 μM) CDK13” value amounted to 38% and the Degradation rates of CDK13 at 0.3 μM is 38%. Moreover, in assay [2], the “Protein Degradation (%DMSO control, 0.3 μM) CDK12” value is 35% and the Degradation rates of CDK12 at 0.3 μM turned out to be 35%.
As for `N#Cc1ccc(N[C@H]2CC[C@H](N(C(=O)NCc3ccccc3)c3ccc(N4CCN(C(=O)C5CCN(c6ccc7c(c6)C(=O)N(C6CCC(=O)NC6=O)C7=O)C5)CC4)cc3)CC2)nc1` (some centres unmarked) [4b, 3-Benzyl-1-((1r,4r)-4-((5-cyanopyridin-2-yl)amino)cyclohexyl)-1-(4-(4-(1-(2-(2,6-dioxopiperidin-3-yl)-1,3-dioxoisoindolin-5-yl)pyrrolidine-3-carbonyl)piperazin-1-yl)phenyl)urea], in assay [1], the “Protein Degradation (%DMSO control, 0.3 μM) CDK13” value worked out at 65% and the Degradation rates of CDK13 at 0.3 μM was 65%. Further, in assay [2], the “Protein Degradation (%DMSO control, 0.3 μM) CDK12” value is on record as 61% and the Degradation rates of CDK12 at 0.3 μM worked out at 61%.
Turning to `N#Cc1ccc(N[C@H]2CC[C@H](N(C(=O)NCc3ccccc3)c3ccc(N4CCN(C(=O)C5CCN(c6ccc7c(c6)C(=O)N(C6CCC(=O)NC6=O)C7=O)CC5)CC4)cc3)CC2)nc1` (some centres unmarked) [4c, 3-Benzyl-1-((1r,4r)-4-((5-cyanopyridin-2-yl)amino)cyclohexyl)-1-(4-(4-(1-(2-(2,6-dioxopiperidin-3-yl)-1,3-dioxoisoindolin-5-yl)piperidine-4-carbonyl)piperazin-1-yl)phenyl)urea], in assay [1], the “Protein Degradation (%DMSO control, 0.3 μM) CDK13” value came to 51% and the Degradation rates of CDK13 at 0.3 μM amounted to 51%. For the same compound, in assay [2], the “Protein Degradation (%DMSO control, 0.3 μM) CDK12” value is reported as 38% and the Degradation rates of CDK12 at 0.3 μM was 38%.
For `N#Cc1ccc(N[C@H]2CC[C@H](N(C(=O)NCc3ccccc3)c3ccc(N4CCN(CC5CN(c6ccc7c(c6)C(=O)N(C6CCC(=O)NC6=O)C7=O)C5)CC4)cc3)CC2)nc1` (some centres unmarked) [4d, 3-Benzyl-1-((1r,4r)-4-((5-cyanopyridin-2-yl)amino)cyclohexyl)-1-(4-(4-((1-(2-(2,6-dioxopiperidin-3-yl)-1,3-dioxoisoindolin-5-yl)azetidin-3-yl)methyl)piperazin-1-yl)phenyl)urea], in assay [1], the “Protein Degradation (%DMSO control, 0.3 μM) CDK13” value was 71% and the Degradation rates of CDK13 at 0.3 μM was found to be 71%. Besides, in assay [2], the “Protein Degradation (%DMSO control, 0.3 μM) CDK12” value is 60% and the Degradation rates of CDK12 at 0.3 μM is 60%.
Take `N#Cc1ccc(N[C@H]2CC[C@H](N(C(=O)NCc3ccccc3)c3ccc(N4CCN(C[C@@H]5CCN(c6ccc7c(c6)C(=O)N(C6CCC(=O)NC6=O)C7=O)C5)CC4)cc3)CC2)nc1` (stereo partly drawn) [4e, 3-Benzyl-1-((1r,4s)-4-((5-cyanopyridin-2-yl)amino)cyclohexyl)-1-(4-(4-(((3S)-1-(2-(2,6-dioxopiperidin-3-yl)-1,3-dioxoisoindolin-5-yl)pyrrolidin-3-yl)methyl)piperazin-1-yl)phenyl)urea]: in assay [1], the “Protein Degradation (%DMSO control, 0.3 μM) CDK13” value is 70% and the Degradation rates of CDK13 at 0.3 μM turned out to be 70%. In assay [2], the “Protein Degradation (%DMSO control, 0.3 μM) CDK12” value is given as 50% and the Degradation rates of CDK12 at 0.3 μM is 50%.
For the compound `N#Cc1ccc(N[C@H]2CC[C@H](N(C(=O)NCc3ccccc3)c3ccc(N4CCN(C[C@H]5CCN(c6ccc7c(c6)C(=O)N(C6CCC(=O)NC6=O)C7=O)C5)CC4)cc3)CC2)nc1` (stereo partly drawn) [4f, 3-Benzyl-1-((1r,4r)-4-((5-cyanopyridin-2-yl)amino)cyclohexyl)-1-(4-(4-(((3R)-1-(2-(2,6-dioxopiperidin-3-yl)-1,3-dioxoisoindolin-5-yl)pyrrolidin-3-yl)methyl)piperazin-1-yl)phenyl)urea], in assay [1], the “Protein Degradation (%DMSO control, 0.3 μM) CDK13” value was 64% and the Degradation rates of CDK13 at 0.3 μM was found to be 64%. In assay [2], the “Protein Degradation (%DMSO control, 0.3 μM) CDK12” value is recorded as 59% and the Degradation rates of CDK12 at 0.3 μM is 59%.
With `N#Cc1ccc(N[C@H]2CC[C@H](N(C(=O)NCc3ccccc3)c3ccc(N4CCN(CC5CCN(c6ccc7c(c6)C(=O)N(C6CCC(=O)NC6=O)C7=O)CC5)CC4)cc3)CC2)nc1` (some centres unmarked) [4g, 3-Benzyl-1-((1r,4r)-4-((5-cyanopyridin-2-yl)amino)cyclohexyl)-1-(4-(4-((1-(2-(2,6-dioxopiperidin-3-yl)-1,3-dioxoisoindolin-5-yl)piperidin-4-yl)methyl)piperazin-1-yl)phenyl)urea], in assay [1], the “Protein Degradation (%DMSO control, 0.3 μM) CDK13” value was 84% and the Degradation rates of CDK13 at 0.3 μM is 84%. For the same compound, in assay [2], the “Protein Degradation (%DMSO control, 0.3 μM) CDK12” value was 74% and the Degradation rates of CDK12 at 0.3 μM turned out to be 74%.
Take `N#Cc1ccc(N[C@H]2CC[C@H](N(C(=O)NCc3ccccc3)c3ccc(N4CCN(CC5CCN(c6cc7c(cc6F)C(=O)N(C6CCC(=O)NC6=O)C7=O)CC5)CC4)cc3)CC2)nc1` (some centres unmarked) [4g-F, 3-Benzyl-1-((1r,4r)-4-((5-cyanopyridin-2-yl)amino)cyclohexyl)-1-(4-(4-((1-(2-(2,6-dioxopiperidin-3-yl)-6-fluoro-1,3-dioxoisoindolin-5-yl)piperidin-4-yl)methyl)piperazin-1-yl)phenyl)urea]: in assay [1], the “Protein Degradation (%DMSO control, 0.3 μM) CDK13” value was found to be 57% and the Degradation rates of CDK13 at 0.3 μM amounted to 57%. Also, in assay [2], the “Protein Degradation (%DMSO control, 0.3 μM) CDK12” value was 53% and the Degradation rates of CDK12 at 0.3 μM was determined as 53%.
As to `N#Cc1ccc(N[C@H]2CC[C@H](N(C(=O)NCc3ccccc3)c3ccc(N4CC(CN5CCN(c6ccc7c(c6)C(=O)N(C6CCC(=O)NC6=O)C7=O)CC5)C4)cc3)CC2)nc1` (some centres unmarked) [4h, 3-Benzyl-1-((1r,4r)-4-((5-cyanopyridin-2-yl)amino)cyclohexyl)-1-(4-(3-((4-(2-(2,6-dioxopiperidin-3-yl)-1,3-dioxoisoindolin-5-yl)piperazin-1-yl)methyl)azetidin-1-yl)phenyl)urea], in assay [1], the “Protein Degradation (%DMSO control, 0.3 μM) CDK13” value was found to be 61% and the Degradation rates of CDK13 at 0.3 μM was determined as 61%. Moreover, in assay [2], the “Protein Degradation (%DMSO control, 0.3 μM) CDK12” value turned out to be 37% and the Degradation rates of CDK12 at 0.3 μM stood at 37%.
For `N#Cc1ccc(N[C@H]2CC[C@H](N(C(=O)NCc3ccccc3)c3ccc(N4CCC(CN5CCN(c6ccc7c(c6)C(=O)N(C6CCC(=O)NC6=O)C7=O)CC5)C4)cc3)CC2)nc1` (some centres unmarked) [4i, 3-Benzyl-1-((1r,4r)-4-((5-cyanopyridin-2-yl)amino)cyclohexyl)-1-(4-(3-((4-(2-(2,6-dioxopiperidin-3-yl)-1,3-dioxoisoindolin-5-yl)piperazin-1-yl)methyl)pyrrolidin-1-yl)phenyl)urea], in assay [1], the “Protein Degradation (%DMSO control, 0.3 μM) CDK13” value was determined as 16% and the Degradation rates of CDK13 at 0.3 μM was determined as 16%. Also, in assay [2], the “Protein Degradation (%DMSO control, 0.3 μM) CDK12” value is 28% and the Degradation rates of CDK12 at 0.3 μM turned out to be 28%.
On to `N#Cc1ccc(N[C@H]2CC[C@H](N(C(=O)NCc3ccccc3)c3ccc(N4CCC(CN5CCN(c6ccc7c(c6)C(=O)N(C6CCC(=O)NC6=O)C7=O)CC5)CC4)cc3)CC2)nc1` (some centres unmarked) [4j, 3-Benzyl-1-((1r,4r)-4-((5-cyanopyridin-2-yl)amino)cyclohexyl)-1-(4-(4-((4-(2-(2,6-dioxopiperidin-3-yl)-1,3-dioxoisoindolin-5-yl)piperazin-1-yl)methyl)piperidin-1-yl)phenyl)urea], for which, in assay [1], the “Protein Degradation (%DMSO control, 0.3 μM) CDK13” value is 71% and the Degradation rates of CDK13 at 0.3 μM was 71%. In assay [2], the “Protein Degradation (%DMSO control, 0.3 μM) CDK12” value is reported as 49% and the Degradation rates of CDK12 at 0.3 μM stood at 49%.
